We go through 40 compounds from PubChem BioAssay AID651816 (Broad Institute, 2012).

“And” between values parts separate entries of the source, which are not always exact repeats. Identical values can stand only once. The source made the active and inactive calls. How the calls were made is not given here.

The first assay concerns V. cholerae BH1578 luxCDABE luminescence, 6 h. In words: Cholera quorum light production inducers, absence of autoinducers, BH1578 strain, confirmatory dose response (AID 651816).
Conditions: not given
In the case of `CCn1nnnc1NCc1ccc(N2CCCCC2)cc1`, the AC40 is 121 nM.

With `CCn1nnnc1NCc1ccc(N2CCCC2)cc1`, the AC40 was 20.9 nM.

`O=C(Cc1ccc(-c2ccccc2)cc1)NC1CCCC1`: the AC40 was 409 nM and 756 nM.

For the compound `Cn1nnnc1NCc1ccc(N2CCCC2)cc1`, the AC40 is 956 nM.

Regarding `CCCCn1nnnc1NCc1ccc(N2CCCC2)cc1`, the AC40 was 5660 nM.

On to `CC(C)c1ccc(CNc2nnnn2C)cc1`, for which the AC40 is 3260 nM.

As to `CCn1nnnc1NCc1cccc(N2CCCC2)c1`, the AC40 is 504 nM.

Regarding `CCn1nnnc1NCc1ccc(C(C)C)cc1`, the AC40 was 89.1 nM and 143 nM.

Turning to `CCC(C)NC(=O)Cc1ccc(-c2ccccc2)cc1` (stereo not given), the AC40 was 4820 nM.

Regarding `CCn1nnnc1CCc1ccc(N2CCCC2)cc1`, the AC40 is 1680 nM.

In the case of `O=C(Cc1ccc(-c2ccccc2)cc1)NC1CCC1`, the AC40 is 510 nM.

For `CCC(CC)NC(=O)Cc1ccc(-c2ccccc2)cc1`, the AC40 was 5370 nM.

With `O=C(Cc1ccc(-c2ccccc2)cc1)NC1CCOCC1`, the AC40 is 2890 nM.

Turning to `CCCn1nnnc1NCc1ccc(C(C)C)cc1`, the AC40 is 793 nM.

Take `CC(C)NC(=O)Cc1ccc(-c2ccccc2)cc1`: the AC40 was 6210 nM.

`CCCn1nnnc1NCc1ccc(N2CCCC2)cc1`: the AC40 is 60.8 nM.

Tested on in another assay: not listed separately
The description is as above. The settings on record: V. cholerae BH1578 luxCDABE luminescence, 6 h; at 80 µM (top of the series).
For the compound `CCn1nccc1NCc1ccc(N2CCCC2)cc1`, the activation is 0.056% (inactive).

Consider `O=C(Cc1ccccc1Cl)NC1CCCC1`, for which the activation was -0.009% (inactive).

For the compound `Cc1ccc(Cn2nnnc2NCc2ccc(N3CCCC3)cc2)cc1`, the activation is 0.022% (inactive).

Regarding `CS(=O)(=O)c1ccc(CC(=O)NC2CCCC2)cc1`, the activation is -0.008% (inactive).

For the compound `O=C(Cc1ccccc1OC(F)(F)F)NC1CCCC1`, the activation was -0.008% (inactive).

Regarding `CCn1nnc(NCc2ccc(C)cc2)n1`, the activation is 0.015% (inactive).

As to `CCc1ccccc1NCc1ccc(N2CCCC2)cc1`, the activation is 0.047% (inactive).

In the case of `Cc1ccccc1CC(=O)NC1CCCC1`, the activation is 0.039% (inactive).

Turning to `O=C(Cc1ccccc1C(F)(F)F)NC1CCCC1`, the activation was -0.032% (inactive).

Turning to `COc1ccc(CC(=O)NC2CCCC2)cc1`, the activation was 0.353% (inactive).

For `O=C(Cc1cccc(OC(F)(F)F)c1)NC1CCCC1`, the activation was 0.099% (inactive).

For the compound `c1ccc(Cn2nnnc2NCc2ccc(N3CCCC3)cc2)cc1`, the activation is 0.055% (inactive).

`CCn1nnc(CCc2ccc(N3CCCC3)cc2)n1`: the activation is 0.033% (inactive).

For the compound `O=C(Cc1ccccc1F)NC1CCCC1`, the activation was 0.028% (inactive).

Turning to `O=C(NCc1ccc(-c2ccccc2)cc1)C1CCCC1`, the activation was 0.19% (inactive).

`O=C(Cc1ccc(-c2ccccc2)cc1)NC1CCCCC1`: the activation was 7.99% (inactive).

As to `Fc1ccc(Cn2nnnc2NCc2ccc(N3CCCC3)cc2)cc1`, the activation was 0.053% (inactive).

With `CCn1nnnc1NCc1cccc(OC)c1`, the activation is 3.31% (inactive).

Regarding `CCCn1nnnc1NCc1ccccc1Cl`, the activation is -0.011% (inactive).

Consider `c1ccc(Cn2nnc(NCc3ccc(N4CCCC4)cc3)n2)cc1`, for which the activation is 0.04% (inactive).

For `CCn1nccc1/N=C/c1ccc(N2CCCC2)cc1`, the activation is 0.02% (inactive).

As for `c1ccc(-n2nnnc2NCc2ccc(N3CCCC3)cc2)cc1`, the activation was 0.051% (inactive).

In the case of `O=C(Cc1cccc(F)c1)NC1CCCC1`, the activation is 0.665% (inactive).

In the case of `CCn1nnnc1NCc1ccccc1N1CCCC1`, the activation is -0.011% (inactive).
